Results on seven compounds are retold here after ChEMBL document CHEMBL3046611, “Anti-tubercular agents from Ammannia baccifera (Linn.)” (2013).

≈ marks a conversion by molar mass, not a printed value.

In one assay the test system is Mycobacterium tuberculosis. Put plainly: Antimycobacterial activity against Mycobacterium tuberculosis H37Rv ATCC 27294 assessed as growth inhibition by agar dilution method. It counts as functional.
Conditions: not given
By MIC is commonly meant the least concentration at which growth counts as inhibited. As to `O=C1CC[C@H](O)c2ccccc21` [(-)-4-HYDROXY-ALPHA-TETRALONE], the minimum inhibitory concentration (MIC) worked out at 4 µg/mL (≈ 24.7 µM).

The next assay deals with Mycobacterium tuberculosis. Put plainly: Antitubercular activity against Mycobacterium tuberculosis H37Rv ATCC 27294 assessed as growth inhibition after 24 hr by BACTEC-460 radiometric susceptibility assay. It counts as functional. The settings on record: H37Rv ATCC 27294, 24 h.
Take `COc1cc(C(=O)O[C@H]2CCC(=O)c3ccccc32)cc(OC)c1OC` [4-O-(3,4,5-TRIMETHOXYBENZOYL)-ALPHA-TETRALONE]: the MIC came to 100 µg/mL (≈ 281 µM).

With `O=C(O[C@H]1CCC(=O)c2ccccc21)c1ccccc1` [4-O-BENZOYL-ALPHA-TETRALONE], the MIC is 100 µg/mL (≈ 376 µM).

On to `COc1cccc(C(=O)O[C@H]2CCC(=O)c3ccccc32)c1` [4-O-META-ANISOYL-ALPHA-TETRALONE], for which the MIC stood at 100 µg/mL (≈ 337 µM).

For `CCCCCCCCCCCCCC(=O)O[C@H]1CCC(=O)c2ccccc21` [4-O-MYRICITOYL-ALPHA-TETRALONE], the MIC amounted to 50 µg/mL (≈ 134 µM).

As to `CCCCCCCCCCCCCCCC(=O)O[C@H]1CCC(=O)c2ccccc21` [4-O-PALMITOYL-ALPHATETRALONE], the MIC is 100 µg/mL (≈ 250 µM).

In the case of `O=C1CC[C@H](O)c2ccccc21` [(-)-4-HYDROXY-ALPHA-TETRALONE], the MIC was 50 µg/mL (≈ 308 µM).

In the case of `O=C1CC[C@H](O[C@@H]2O[C@H](CO)[C@@H](O)[C@H](O)[C@H]2O)c2ccccc21` [TETRALONE-4-O-BETA-D-GLUCOPYRANOSIDE], the minimal inhibitory concentration (MIC) was 100 µg/mL (≈ 308 µM).
